Key:
[1] = system: Horn Fly (Haematobia irritans); assay: Cattle Ectoparasiticide Test, pour-on or spray against horn flies; type: in vivo
Description: Cattle Ectoparasiticide Test (CET)/Horn Fly (Haematobia irritans) and/or Adult Tick (Amblyomma americanum): Cattle are housed in environmentally controlled rooms, 1 or 2 animals per room that have screened doors and ventilation system to prevent fly escape. Following treatment application, a defined number of horn flies are released into each room (typically at or above economic threshold of 200 flies per animal). After defined periods of time, the numbers of live horn flies remaining on animals are enumerated. If a combination horn fly and tick experiment is conducted, adult lone star ticks are placed into surgical stockinette enclosures that are glued onto the backs of cattle. Cattle are restrained in a modified head gate within environmentally controlled rooms. Horn flies may be enumerated, followed by determination of the numbers of dead ticks inside of containment units. Typically there are 2 containment units per animal and at least 2 animals per treatment group.
B) Therapeutic and residual efficacy testing of spinetoram and Elector against horn flies when applied topically to cattle as a pour-on or topical spray. Spinetoram (120 g/L), Elector (25 g/L spinosad) as described previously were used. Test material was applied to animals as either a whole-body topical spray or neat pour-on. Spinetoram was diluted in water to 25 g/L prior to application as a pour-on. Both materials were diluted in water to 0.04% (400 ppm) for application as a whole-body spray in a total volume of 1 L per animal. There were a total of six animals per treatment group (n=6) plus six negative control animals. Beef and dairy cattle were used. Following treatments, horn flies were released into rooms harboring cattle. Live flies were enumerated 24 h following challenges.

[2] = system: Cat Flea; assay: Flea Contact Assay (FCA)
Description: Flea Contact Assay (FCA)/Cat Flea: Test material is formulated in acetone at the desired exposure concentration and doubling dilutions performed to obtain a total of 10 testing levels. Approximately 0.05 ml of formulated material is dispensed into the bottom of a test tube containing a small amount of dog hair. Acetone is allowed to evaporate under a fume hood overnight. Approximately 10 mixed-sex adult cat flea are anesthetized using carbon dioxide and dispensed into each tube. Tubes are sealed using a ventilated plastic cap and incubated at 27° C. and 75-80% relative humidity. […] Nonlinear regression is used to model dose-mortality relationship and obtain relative potency (LD50) data compared to contemporaneous controls (acetone-only or fipronil).

[3] = system: House Fly; assay: Adult House Fly Assay (AhsF); parameters: species or system Musca domestica; details: House Fly, 24 h
Description: Adult Stable or House Fly Assay (ASF, AhsF). This assay is conducted essentially as described in White, W. H., S. M. Bauer, X. Zhao et al., Comparison of in vitro and in vivo ectoparasiticide activity of an experimental benzimidazole-carbamate with permethrin and amitraz, J. Med. Entomol. 42, 207-211 (2005); and White, W. H., C. M. McCoy, J. A. Meyer et al., Knockdown and mortality comparisons among spinosad-, imidacloprid-, and methomyl-containing baits against susceptible Musca domestica (Diptera: Muscidae) under laboratory conditions, J. Econ. Entomol. 100, 155-163 (2007).
Test material is formulated in DMSO at 10 mM. Doubling dilutions in like solvent are made to yield 10 testing levels. Materials are diluted in either bovine serum (stable flies) or 5% glucose solution (house flies) to obtain desired exposure concentrations from 200-0.39 μM. Approximately 3 ml of diluted test material is placed into a test tube (n=3 per test level) and a dental wick is used to absorb fluid. One dental wick is placed into a small weigh boat inside of a 100 mm Petri dish. Approximately 10 mixed-sex adult flies are anesthetized using carbon dioxide and counted into each dish. Dishes are incubated at 27° C. and 50-70% relative humidity. Flies recover from anesthesia and feed on compound-soaked dental wicks. After 24 h, live/dead flies are enumerated. Nonlinear regression is used to model dose-mortality relationship and obtain relative potency (LD50) data compared to contemporaneous controls (solvent-only or permethrin).

Question: What does the source list for Spinetoram?
Answer: GM percent horn fly reduction after 24 hrs, Pour-on ([1]; cattle, pour-on 2 mg/kg, Initial): 100%; GM percent horn fly reduction after 24 hrs, Spray ([1]; cattle, whole-body spray 0.04% AI, Initial): 99.9%; therapeutic efficacy compared with Elector ([1]; horn fly infested cattle, pour-on (2 mg/kg) or whole-body spray (0.04% AI)): equivalent therapeutic efficacy; Potency (EC50 ng/cm^2) 24 h ([2]; Cat Flea, 24 h): 1.292 ng/cm^2; Spinetoram: Spinosad Potency Ratio 24 h ([2]; Cat Flea, 24 h): 2.4; Potency (EC50 ng/cm^2) 48 h ([2]; Cat Flea, 48 h): 0.6238 ng/cm^2; Spinetoram: Spinosad Potency Ratio 48 h ([2]; Cat Flea, 48 h): 2.4; times more potent than spinosad in vitro ([2]; adult cat fleas, time not stated): 2.4 times; Spinetoram: Spinosad Potency Ratio [3]: 5.5; EC50 ([3]; read-out: Potency (24 h EC50 μM)): 2.18 µM

Reference: patent US20150045313A1, “Ectoparasiticidal Methods and Formulations” (Eli Lilly and Company, priority 2009, published 2015)
